Test results from the supplement of paper PMC4380931.

How the values were obtained:
Assay in all cases: relative viability (cell count relative to DMSO-treated control) (fraction of DMSO control); higher = more viable cells / less drug effect
LOXIMVI = conditions: 24 h
Procedure: (§1)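 BRAF V600E/D melanoma cell lines were seeded in 96-well plates, treated in 4 replicates with seven doses (3.16 nM to 3.16 uM) of RAF/MEK inhibitors for 24, 48 or 72 h, and stained with Hoechst 33342 (nuclei) and DEVD-NucView488 caspase-3 substrate. Plates were imaged on an Operetta. Relative viability is the cell count normalised to a DMSO-treated control; apoptosis fraction is the fraction of NucView488-positive nuclei.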

MMACSF = system: MMACSF
Procedure: as §1

MZ7MEL = system: MZ7MEL
Procedure: as §1

RVH421 = system: RVH421
Procedure: as §1

WM115 = system: WM115
Procedure: as §1

WM1552C = system: WM1552C
Procedure: as §1

Cn1cnc2c(F)c(Nc3ccc(Br)cc3Cl)c(C(=O)NOCCO)cc21 [Selumetinib]
LOXIMVI
Conditions	relative viability
0.00316 µM	0.937
0.01 µM	0.976
0.0316 µM	1.02
0.1 µM	1.07
0.316 µM	0.98
1 µM	1
3.16 µM	0.913

relative viability
Conditions	0.00316 µM	0.01 µM	0.0316 µM	0.1 µM	0.316 µM	1 µM	3.16 µM
MMACSF, 24 h	1.11	1.02	1.022	1.05	0.989	1.04	1.06
MMACSF, 48 h	0.907	1.01	0.88	0.743	0.748	0.664	0.533
MMACSF, 72 h	0.924	0.759	0.563	0.449	0.344	0.21	0.141
MZ7MEL, 24 h	1.03	1.13	1.11	1.07	1.07	0.997	0.809
MZ7MEL, 48 h	1.01	1.01	1.04	0.797	0.508	0.504	0.492
MZ7MEL, 72 h	1.14	1.06	0.58	0.328	0.349	0.308	0.31
RVH421, 24 h	0.975	0.995	1.032	1.03	1.09	1.02	0.919
RVH421, 48 h	1.04	0.884	0.795	0.721	0.659	0.658	0.593
RVH421, 72 h	1.01	0.988	0.849	0.657	0.566	0.511	0.488
WM115, 24 h	1.06	1.27	1.36	1.27	1.46	0.89	0.728
WM115, 48 h	1.02	1.39	1.37	1.48	1.24	0.823	0.592
WM115, 72 h	1.03	1.07	0.918	0.751	0.587	0.409	0.287
WM1552C, 24 h	0.97	0.993	1.0822	1.07	1.03	1.06	0.947
WM1552C, 48 h	0.947	0.992	0.956	0.867	0.761	0.676	0.677
WM1552C, 72 h	0.862	0.918	0.806	0.635	0.526	0.44	0.411

CCCS(=O)(=O)Nc1ccc(F)c(C(=O)c2c[nH]c3ncc(Cl)cc23)c1F [PLX4720]
LOXIMVI
Conditions	relative viability
0.00316 µM	0.917
0.01 µM	0.969
0.0316 µM	1.03
0.1 µM	1.1
0.316 µM	1.05
1 µM	1.04
3.16 µM	0.913

relative viability
Conditions	0.00316 µM	0.01 µM	0.0316 µM	0.1 µM	0.316 µM	1 µM	3.16 µM
MMACSF, 24 h	1.02	0.9436	0.974	1.04	0.991	1.02	1.06
MMACSF, 48 h	0.92	1.02	1.01	1.01	0.854	0.764	0.679
MMACSF, 72 h	0.937	0.923	0.86	0.632	0.531	0.336	0.146
MZ7MEL, 24 h	1.02	1.02	1.14	1.19	1.13	0.956	0.795
MZ7MEL, 48 h	1.04	0.99	1.02	1.09	0.931	0.608	0.48
MZ7MEL, 72 h	1.28	1.16	1.07	0.661	0.504	0.382	0.329
RVH421, 24 h	0.932	1.01	0.9915	1.05	1.054	0.981	0.909
RVH421, 48 h	1.03	0.881	0.948	0.939	0.732	0.673	0.541
RVH421, 72 h	0.978	1.03	1.01	0.89	0.678	0.569	0.483
WM115, 24 h	1.14	1.39	1.49	1.44	1.58	1.02	1.14
WM115, 48 h	1.25	1.37	1.32	1.83	1.67	1.24	0.792
WM115, 72 h	1.01	1.03	1.03	1.06	0.8596	0.594	0.302
WM1552C, 24 h	1.02	1.05	1.031	1.08	1.02	1.064	0.9942
WM1552C, 48 h	0.976	0.994	1.01	0.977	0.839	0.795	0.723
WM1552C, 72 h	1.04	1.13	1.13	1.03	0.83	0.576	0.497

CCCS(=O)(=O)Nc1ccc(F)c(C(=O)c2c[nH]c3ncc(-c4ccc(Cl)cc4)cc23)c1F [Vemurafenib]
LOXIMVI
Conditions	relative viability
0.00316 µM	0.969
0.01 µM	0.94
0.0316 µM	0.959
0.1 µM	0.96
0.316 µM	0.953
1 µM	0.95
3.16 µM	0.805

relative viability
Conditions	0.00316 µM	0.01 µM	0.0316 µM	0.1 µM	0.316 µM	1 µM	3.16 µM
MMACSF, 24 h	0.923	0.887	0.976	1	0.89	0.9218	0.905
MMACSF, 48 h	0.908	0.923	0.962	1	0.85	0.713	0.604
MMACSF, 72 h	0.957	0.941	0.939	0.697	0.56	0.29	0.0882
MZ7MEL, 24 h	0.982	1.11	1.08	1.08	1.15	1.1	0.938
MZ7MEL, 48 h	1.04	1.09	1.07	1.07	0.955	0.667	0.54
MZ7MEL, 72 h	1.29	1.39	1.19	0.871	0.587	0.367	0.349
RVH421, 24 h	0.8497	0.936	0.993	1	1.07	1.04	0.823
RVH421, 48 h	1.02	0.907	0.932	0.887	0.778	0.684	0.503
RVH421, 72 h	0.957	1.02	0.959	0.909	0.674	0.539	0.452
WM115, 24 h	1.17	1.2	1.22	1.18	1.17	1.22	1.24
WM115, 48 h	1.04	1.24	1.24	1.45	1.73	1.31	0.884
WM115, 72 h	0.953	1.04	1.05	1.07	0.855	0.571	0.27
WM1552C, 24 h	0.92	0.969	0.912	1.06	1.03	0.987	0.875
WM1552C, 48 h	0.9247	1	1.01	1	1.06	0.886	0.719
WM1552C, 72 h	1.06	1.14	1.17	1.2	1.06	0.671	0.42

Cc1ccc(NC(=O)c2cccc(C(C)(C)C#N)c2)cc1Nc1ccc2ncn(C)c(=O)c2c1 [AZ628]
LOXIMVI
Conditions	relative viability
0.00316 µM	0.963
0.01 µM	0.949
0.0316 µM	0.956
0.1 µM	0.942
0.316 µM	0.86
1 µM	0.862
3.16 µM	0.822

relative viability
Conditions	0.00316 µM	0.01 µM	0.0316 µM	0.1 µM	0.316 µM	1 µM	3.16 µM
MMACSF, 24 h	1.059	0.978	1	0.982	0.988	1	1.034
MMACSF, 48 h	0.938	1.02	0.913	0.771	0.737	0.56	0.517
MMACSF, 72 h	0.917	0.833	0.641	0.519	0.367	0.223	0.141
MZ7MEL, 24 h	1.02	1.02	1.05	1.19	1.12	0.945	0.878
MZ7MEL, 48 h	1.03	1.04	1	0.726	0.549	0.435	0.465
MZ7MEL, 72 h	1.2	1.11	0.586	0.336	0.33	0.356	0.327
RVH421, 24 h	0.929	0.9636	1.05	1.06	1.02	0.993	0.908
RVH421, 48 h	1.06	0.944	0.81	0.666	0.696	0.65	0.544
RVH421, 72 h	0.956	0.915	0.741	0.58	0.537	0.47	0.412
WM115, 24 h	1.19	1.47	1.51	1.53	1.37	0.87	0.946
WM115, 48 h	1.06	1.19	1.47	1.31	1.11	0.658	0.424
WM115, 72 h	1.03	1.04	0.801	0.594	0.281	0.172	0.0874
WM1552C, 24 h	0.959	0.982	0.99	1.01	0.974	0.996	0.928
WM1552C, 48 h	1.01	1	0.964	0.772	0.665	0.647	0.644
WM1552C, 72 h	1.03	1.11	0.948	0.736	0.555	0.484	0.442

CN(C)CCOc1ccc(-c2nc(-c3ccncc3)c(-c3ccc4c(c3)CC/C4=N\O)[nH]2)cc1
LOXIMVI
Conditions	relative viability
0.00316 µM	0.935
0.01 µM	1.01
0.0316 µM	1.02
0.1 µM	0.997
0.316 µM	1.02
1 µM	0.987
3.16 µM	0.903

relative viability
Conditions	0.00316 µM	0.01 µM	0.0316 µM	0.1 µM	0.316 µM	1 µM	3.16 µM
MMACSF, 24 h	1.03	0.999	0.9993	1.03	0.964	0.977	1.02
MMACSF, 48 h	0.955	1.01	0.925	0.787	0.791	0.727	0.684
MMACSF, 72 h	0.953	0.952	0.779	0.6	0.529	0.423	0.341
MZ7MEL, 24 h	1.1	1.18	1.1	1.09	1.18	1.13	0.887
MZ7MEL, 48 h	1.07	0.968	0.991	0.874	0.67	0.608	0.545
MZ7MEL, 72 h	1.23	1.14	0.834	0.614	0.537	0.414	0.387
RVH421, 24 h	0.994	0.9379	1.04	1.034	1.01	1.02	0.929
RVH421, 48 h	1.07	0.849	0.803	0.689	0.672	0.638	0.513
RVH421, 72 h	0.983	0.995	0.872	0.702	0.641	0.575	0.542
WM115, 24 h	1.06	1.33	1.36	1.4	1.35	1.15	1.28
WM115, 48 h	1.31	1.47	1.54	1.44	1.42	0.972	0.683
WM115, 72 h	1.03	1.02	0.889	0.773	0.683	0.584	0.573
WM1552C, 24 h	0.999	1.036	0.986	1.08	1.03	1.088	1.05
WM1552C, 48 h	1.01	1.01	0.994	0.994	0.954	0.87	0.82
WM1552C, 72 h	1.03	1.16	1.15	1.03	0.899	0.699	0.616
